Source: patent publication US6673795B2, “Pyrimidine, pyrazine and triazane derivatives” (Hoffmann-La Roche Inc., priority 2001, dated 2004)

Legend:
rat mGluR1a receptor = molecular target: T1, rat mGluR1a receptor (Rattus norvegicus, UniProt P23385); assay: Binding assay for the characterization of mGluR 1 antagonistic properties (tritiated radioligand displacement); conditions: membranes of HEK 293 cells transiently transfected with rat mGluR1a; tritiated 1-ethyl-2-methyl-6-oxo-4-(1,1,2-tritritio-1,2,4,5-tetrahydro-benzo[d]azepin-3-yl)-1,6-dihydro-pyrimidine-5-carbonitrile at 3 nM; 1 hour at room temperature
T1 construct: expressed in transfected cells; host or cells: HEK 293 cells, transient transfection; membrane preparation
Description: Binding Assay for the Characterization of mGluR 1 Antagonistic Properties
Binding assay with tritiated 1-ethyl-2-methyl-6-oxo-4-(1,1,2-tritritio-1,2,4,5-tetrahydro-benzo[d]azepin-3-yl)-1,6-dihydro-pyrimidine-5-carbonitrile: HEK 293 cells were transiently transfected with the rat mGluR^1 a receptor. The cells were collected and washed 3 times with PBS. The cell pellets were frozen at −80° C. Membranes were prepared from HEK 293 cells transfected with the rat mGluR^1 a receptor and used in the binding experiments at 10 μg proteins per assay after resuspension in a HEPES NaOH 20 mM, pH=7.4 binding buffer. 1-Ethyl-2-methyl-6-oxo-4-(1,1,2-tritritio-1,2,4,5-tetrahydro-benzo [d]azepin-3-yl)-1,6-dihydro-pyrimidine-5-carbonitrile (S.A 33.4 Ci/mmol) was used at 3 nM final concentration. The incubation with variable concentrations of potential inhibitors was performed for 1 hour at room temperature, the incubate was then filtered onto GF/B glass fiber filter preincubated 1 hour in PEI 0,1% and washed 3 times with 1 ml of cold binding buffer. The radioactivity retained on the unifilter 96 was counted using a Topcount β counter. After correction for non specific binding the data were normalized and the IC50 value calculated using a 4 parameters logistic equation which was fitted to the inhibition curve.

T1 sequence (P23385 19-1199): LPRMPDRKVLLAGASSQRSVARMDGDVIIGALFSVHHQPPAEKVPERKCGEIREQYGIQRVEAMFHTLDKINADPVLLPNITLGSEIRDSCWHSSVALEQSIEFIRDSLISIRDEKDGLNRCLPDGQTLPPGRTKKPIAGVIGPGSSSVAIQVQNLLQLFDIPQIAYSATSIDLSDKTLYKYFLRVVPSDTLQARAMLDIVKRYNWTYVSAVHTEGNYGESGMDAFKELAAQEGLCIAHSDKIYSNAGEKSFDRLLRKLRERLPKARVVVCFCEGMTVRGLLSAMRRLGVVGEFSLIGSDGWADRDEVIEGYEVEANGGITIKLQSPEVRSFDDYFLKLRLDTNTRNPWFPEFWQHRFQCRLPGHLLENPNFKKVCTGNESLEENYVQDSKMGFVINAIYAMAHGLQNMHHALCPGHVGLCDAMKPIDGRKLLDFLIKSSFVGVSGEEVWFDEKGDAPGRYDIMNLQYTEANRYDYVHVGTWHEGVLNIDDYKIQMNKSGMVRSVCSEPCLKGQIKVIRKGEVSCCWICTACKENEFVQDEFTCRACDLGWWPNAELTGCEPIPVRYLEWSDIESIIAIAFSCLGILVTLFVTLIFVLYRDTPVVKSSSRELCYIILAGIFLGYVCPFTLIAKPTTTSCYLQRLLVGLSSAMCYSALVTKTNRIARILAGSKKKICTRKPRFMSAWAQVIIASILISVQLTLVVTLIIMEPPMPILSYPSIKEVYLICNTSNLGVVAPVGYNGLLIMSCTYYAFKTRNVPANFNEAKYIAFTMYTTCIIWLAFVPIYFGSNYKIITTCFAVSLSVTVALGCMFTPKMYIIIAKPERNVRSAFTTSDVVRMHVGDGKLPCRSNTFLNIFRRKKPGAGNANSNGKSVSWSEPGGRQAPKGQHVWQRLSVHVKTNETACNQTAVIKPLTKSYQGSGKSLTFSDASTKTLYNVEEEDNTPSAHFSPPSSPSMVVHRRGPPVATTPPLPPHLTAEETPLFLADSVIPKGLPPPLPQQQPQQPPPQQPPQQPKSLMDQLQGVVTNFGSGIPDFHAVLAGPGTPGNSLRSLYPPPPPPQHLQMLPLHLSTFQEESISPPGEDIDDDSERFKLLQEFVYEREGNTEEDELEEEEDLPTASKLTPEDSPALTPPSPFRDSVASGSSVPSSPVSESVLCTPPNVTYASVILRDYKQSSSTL

| SMILES | IC50 (rat mGluR1a receptor) [nM] | melting point |
| --- | --- | --- |
| CCc1c(C)nc(N2CCN(c3ccc(F)cc3)CC2)c(C#N)[n+]1[O-] [Example 79-1, 5′-ethyl-4-(4-fluoro-phenyl)-6′-methyl-4′-oxy-3,4,5,6-tetrahydro-2H-[1,2′]bipyrazinyl-3′-carbonitrile] | 25 | – |
| CCc1nc(N2CCN(c3ccccc3)CC2)c(C#N)nc1C [Example 75-2, 6′-ethyl-5′-methyl-4-phenyl-3,4,5,6-tetrahydro-2H-[1,2′]bipyrazinyl-3′-carbonitrile] | 23 | – |
| Cc1nc(N2CCN(c3ccc(F)cc3)CC2)c(C#N)nc1-c1ccccc1 [Example 80, 4-(4-Fluoro-phenyl)-6′-methyl-5′-phenyl-3,4,5,6-tetrahydro-2H-[1,2′]bipyrazinyl-3′-carbonitrile] | – | 117 to 120 °C |
| N#Cc1c(NCCO)nc(NC2CC2)nc1N1CCN(c2ccccc2)CC1 [Example 47, 2-cyclopropylamino-4-(2-hydroxy-ethylamino)-6-(4-phenyl-piperazin-1-yl)-pyrimidine-5-carbonitrile] | 33 | – |
| CCc1nc(N2CCN(c3ccc(F)cc3)CC2)c(C#N)[n+]([O-])c1C [Example 79-2, 6′-ethyl-4-(4-fluoro-phenyl)-5′-methyl-4′-oxy-3,4,5,6-tetrahydro-2H-[1,2′]bipyrazinyl-3′-carbonitrile] | 210 | – |
| CSc1nc(N)nc(N2CCC(c3ccc(F)cc3)CC2)c1C#N [Example 73, 2-Amino-4-[4-(4-fluoro-phenyl)-piperidin-1-yl]-6-methylsulfanyl-pyrimidine-5-carbonitrile] | 159 | – |
| N#Cc1nnc(NCCO)nc1N1CC=C(c2ccccc2)CC1 [Example 84, 3-(2-Hydroxy-ethylamino)-5-(4-phenyl-3,6-dihydro-2H-pyridin-1-yl)-[1,2,4]triazine-6-carbonitrile] | 660 | – |
| Cc1nc(OC(C)C)c([N+](=O)[O-])c(N2CCN(c3ccc(F)cc3)CC2)n1 [Example 11, 4-[4-(4-Fluoro-phenyl)-piperazin-1-yl]-6-isopropoxy-2-methyl-5-nitro-pyrimidine] | – | 98 to 100 °C |
| N#Cc1c(NCCO)nc(NCCO)nc1N1CC=C(c2ccc(F)cc2)CC1 [Example 35, 4-[4-(4-Fluoro-phenyl)-3,6-dihydro-2H-pyridin-1-yl]-2,6-bis-(2-hydroxy-ethylamino)-pyrimidine-5-carbonitrile] | 390 | – |
| Cc1nc(N2CC=C(c3ccccc3)CC2)c([N+](=O)[O-])c(=O)[nH]1 [Example 6, 2-Methyl-5-nitro-6-(4-phenyl-3,6-dihydro-2H-pyridin-1-yl)-3H-pyrimidin-4-one] | – | 212 to 216 °C (dec.) |
| Cc1nc(OCC(F)(F)F)c([N+](=O)[O-])c(N2CCC(c3ccccc3)CC2)n1 [Example 9-2, 2-methyl-5-nitro-4-(4-phenyl-piperidin-1-yl)-6-(2,2,2-trifluoro-ethoxy)-pyrimidine] | – | 114 to 117 °C |
| Cc1nc(N2CCC(c3ccc(F)cc3)CC2)c([N+](=O)[O-])c(=O)n1CC#N [Example 16, {4-[4-(4-Fluoro-phenyl)-piperidin-1-yl]-2-methyl-5-nitro-6-oxo-6H-pyrimidin-1-yl}-acetonitrile] | – | 213 to 215 °C (dec.) |
| Cc1nc(OCC(F)(F)F)c([N+](=O)[O-])c(N2CCN(c3ccc(F)cc3)CC2)n1 [Example 12-2, 4-[4-(4-fluoro-phenyl)-piperazin-1-yl]-2-methyl-5-nitro-6-(2,2,2-trifluoro-ethoxy)-pyrimidine] | – | 92 to 95 °C |
| N#Cc1c(NCCO)nc(NCCO)nc1N1CCC(C#N)(c2ccccc2)CC1 [Example 37, 4-(4-cyano-4-phenyl-piperidin-1-yl)-2,6-bis-(2-hydroxy-ethylamino)-pyrimidine-5-carbonitrile] | 1800 | – |
| N#Cc1c(Cl)nc(NCCO)nc1N1CCC(c2ccc(F)cc2)CC1 [Example 68, 4-chloro-6-[4-(4-fluoro-phenyl)-piperidin-1-yl]-2-(2-hydroxy-ethylamino)-pyrimidine-5-carbonitrile] | 140 | – |
| N#Cc1c(NCCO)nc(NCCO)nc1N1CCC(c2ccc(F)cc2)CC1 [Example 32, 4-[4-(4-Fluoro-phenyl)-piperidin-1-yl]-2,6-bis-(2-hydroxy-ethylamino)-pyrimidine-5-carbonitrile] | 700 | – |
| N#Cc1c(Cl)nc(NCC2CC2)nc1N1CCN(c2ccccc2)CC1 [Example 63, 4-chloro-2-(cyclopropylmethyl-amino)-6-(4-phenyl-piperazin-1-yl)-pyrimidine-5-carbonitrile] | 25 | – |
| Cc1nc(N2CCN(c3ccccc3)CC2)c([N+](=O)[O-])c(=O)[nH]1 [Example 4, 2-Methyl-5-nitro-6-(4-phenyl-piperazin-1-yl)-3H-pyrimidin-4-one] | – | > 250 °C (dec.) |

| SMILES | IC50 (rat mGluR1a receptor) [nM] | melting point |
| --- | --- | --- |
| N#Cc1c(NCc2ccccn2)nc(NCc2ccccn2)nc1N1CCN(c2ccccc2)CC1 [Example 40, 4-(4-Phenyl-piperazin-1-yl)-2,6-bis-[(pyridin-2-ylmethyl)-amino]-pyrimidine-5-carbonitrile] | 1500 | – |
| Cc1nc(N2CCC(O)(c3ccccc3)CC2)c([N+](=O)[O-])c(=O)[nH]1 [Example 3, 6-(4-Hydroxy-4-phenyl-piperidin-1-yl)-2-methyl-5-nitro-3H-pyrimidin-4-one] | – | > 250 °C (dec.) |
| Cc1nc(N2CCC(c3ccc(F)cc3)CC2)c([N+](=O)[O-])c(=O)[nH]1 [Example 7, 6-[4-(4-Fluoro-phenyl)-piperidin-1-yl]-2-methyl-5-nitro-3H-pyrimidin-4-one] | – | 218 to 221 °C (dec.) |
| N#Cc1c(NC2CC2)nc(NC2CC2)nc1N1CCN(c2ccccc2)CC1 [Example 38, 2,4-Bis-cyclopropylamino-6-(4-phenyl-piperazin-1-yl)-pyrimidine-5-carbonitrile] | 64 | – |
| N#Cc1c(NCCO)nc(NCc2cccnc2)nc1N1CCN(c2ccccc2)CC1 [Example 49, 4-(2-Hydroxy-ethylamino)-6-(4-phenyl-piperazin-1-yl)-2-[(pyridin-3-ylmethyl)-amino]-pyrimidine-5-carbonitrile] | 150 | – |
| CSc1nc(N)nc(N2CCN(c3ccc(F)cc3)CC2)c1C#N [Example 70, 2-amino-4-[4-(4-fluoro-phenyl)-piperazin-1-yl]-6-methylsulfanyl-pyrimidine-5-carbonitrile] | 210 | – |
| COCCOc1nc(C)nc(N2CCC(c3ccc(F)cc3)CC2)c1[N+](=O)[O-] [Example 14-2, 4-[4-(4-fluoro-phenyl)-piperidin-1-yl]-6-(2-methoxy-ethoxy)-2-methyl-5-nitro-pyrimidine] | – | 45 to 48 °C |
| Cc1nc(N2CCN(c3ccc(F)cc3)CC2)c([N+](=O)[O-])c(=O)n1CCO [Example 8-1, 6-[4-(4-fluoro-phenyl)-piperazin-1-yl]-3-(2-hydroxy-ethyl)-2-methyl-5-nitro-3H-pyrimidin-4-one] | 42 | – |
| N#Cc1c(NCCO)nc(NCc2cccnc2)nc1N1CCC(c2ccccc2)CC1 [Example 54, 4-(2-Hydroxy-ethylamino)-6-(4-phenyl-piperidin-1-yl)-2-[(pyridin-3-ylmethyl)-amino]-pyrimidine-5-carbonitrile] | 30 | – |
| N#Cc1ncc(NCCO)nc1N1CCC(c2ccc(F)cc2)CC1 [Example 82, 3-[4-(4-Fluoro-phenyl)-piperidin-1-yl]-5-(2-hydroxy-ethylamino)-pyrazine-2-carbonitrile] | – | 155 to 158 °C |
| Cc1nc(OCC(F)(F)F)c([N+](=O)[O-])c(N2CCC(c3ccc(F)cc3)CC2)n1 [Example 13-2, 4-[4-(4-fluoro-phenyl)-piperidin-1-yl]-2-methyl-5-nitro-6-(2,2,2-trifluoro-ethoxy)-pyrimidine] | – | 61 to 64 °C |
| N#Cc1c(NCCO)nc(NCCO)nc1N1CCN(c2ccccc2[N+](=O)[O-])CC1 [Example 29, 2,4-Bis-(2-hydroxy-ethylamino)-6-[4-(2-nitro-phenyl)-piperazin-1-yl]-pyrimidine-5-carbonitrile] | 750 | – |
| N#Cc1c(OCC(F)(F)F)nc(NCCO)nc1N1CCC(c2ccccc2)CC1 [Example 60, 2-(2-Hydroxy-ethylamino)-4-(4-phenyl-piperidin-1-yl)-6-(2,2,2-trifluoro-ethoxy)-pyrimidine-5-carbonitrile] | 36 | – |
| CSc1ccccc1N1CCN(c2nc(NCCO)nc(NCCO)c2C#N)CC1 [Example 25, 2,4-Bis-(2-hydroxy-ethylamino)-6-[4-(2-methylsulfanyl-phenyl)-piperazin-1-yl]-pyrimidine-5-carbonitrile] | 350 | – |
| Cc1nc(OCCO)c([N+](=O)[O-])c(N2CCN(c3ccc(F)cc3)CC2)n1 [Example 8-2, 2-{6-[4-(4-fluoro-phenyl)-piperazin-1-yl]-2-methyl-5-nitro-pyrimidin-4-yloxy}-ethanol] | 58 | – |
| N#Cc1c(NCCO)nc(NCCO)nc1N1CCN(c2ccccc2F)CC1 [Example 20, 4-[4-(2-Fluoro-phenyl)-piperazin-1-yl]-2,6-bis-(2-hydroxy-ethylamino)-pyrimidine-5-carbonitrile] | 290 | – |
| CCn1c(C)nc(N2CCN(c3ccc(F)cc3)CC2)c([N+](=O)[O-])c1=O [Example 10-1, 3-ethyl-6-[4-(4-fluoro-phenyl)-piperazin-1-yl]-2-methyl-5-nitro-3H-pyrimidin-4-one] | 49 | – |
